This passage reports inhibition results from patent publication US8921272B2, “Herbicidal composition” (Ishihara Sangyo Kaisha, Ltd., priority 2011, dated 2014).

Assay type in all cases: in vivo
For assay [1], the system named is goosegrass (Eleusine indica (L.) Gaertn.). Kind of assay: Test Example 1: soil treatment pot test, visually observed growth inhibition of goosegrass. The conditions noted are these: soil treatment one day after sowing, 14 days after treatment, 0 = non-treated, 100 = complete kill, read-out: Growth inhibition rate (%) of goosegrass, Measured value. The text has this: When the herbicidal activity in a case where two active ingredients are combined, is larger than the simple sum of the respective herbicidal activities of the two active ingredients (the expected activity), it is called a synergistic effect. The activity expected by the combination of two active ingredients can be calculated as follows (Colby S. R., “Weed”, vol. 15, p. 20-22, 1967). […] β: growth inhibition rate when treated with y (g/ha) of herbicide Y, E: growth inhibition rate expected when treated with x (g/ha) of herbicide X and y (g/ha) of herbicide Y. That is, when the actual growth inhibition rate (measured value) is larger than the growth inhibition rate by the above calculation (calculated value), the activity by the combination can be regarded as showing a synergistic effect. […] Further, in accordance with the Colby's formula, the growth inhibition rate (%) (calculated value) was calculated.

In assay [2] the test system is green kyllinga (Cyperus brevifolius var. leiolepis). Kind of assay: Test Example 3: foliar treatment pot test, visually observed growth inhibition of green kyllinga. The note with it: 672 h, read-out: Growth inhibition rate (%) of green kyllinga, Measured value. The text has this:
(§1) When the herbicidal activity in a case where two active ingredients are combined, is larger than the simple sum of the respective herbicidal activities of the two active ingredients (the expected activity), it is called a synergistic effect. The activity expected by the combination of two active ingredients can be calculated as follows (Colby S. R., “Weed”, vol. 15, p. 20-22, 1967). E=α+β−(α×β÷100) where α: growth inhibition rate when treated with x (g/ha) of herbicide X,
(§2) β: growth inhibition rate when treated with y (g/ha) of herbicide Y,
(§3) E: growth inhibition rate expected when treated with x (g/ha) of herbicide X and y (g/ha) of herbicide Y.
(§4) That is, when the actual growth inhibition rate (measured value) is larger than the growth inhibition rate by the above calculation (calculated value), the activity by the combination can be regarded as showing a synergistic effect.
(§5) Growth inhibition rate (%)=0 (equivalent to the non-treated area) to 100 (complete kill)
Upland field soil was put into a 1/1,000,000 ha pot, and tubers of green kyllinga (Cyperus brevifolius var. leiolepis) were planted. […]

Assay [3] has as its system bermuda grass (Cynodon dactylon (L.) Pers.). Kind of assay: Test Example 2: foliar treatment pot test, visually observed growth inhibition of bermuda grass. The conditions noted are these: 504 h, foliar treatment at 4.0 to 4.5 leaf stage, 0.25 vol % Agral, 21 days after treatment, read-out: Growth inhibition rate (%) of bermuda grass, Measured value.
Text: as §1, §2, §3, §4, §5
Upland field soil was put into a 1/1,000,000 ha pot, and seeds of bermuda grass (Cynodon dactylon (L.) Pers.) were sown. […]

The subject of the next assay is corn (Zea mays L.). Kind of assay: Test Example 4: soil treatment pot test, visually observed growth inhibition of corn (crop plant which became weeds). The note with it: soil treatment one day after sowing, 28 days after treatment, read-out: Growth inhibition rate (%) of corn, Measured value. The source says: When the herbicidal activity in a case where two active ingredients are combined, is larger than the simple sum of the respective herbicidal activities of the two active ingredients (the expected activity), it is called a synergistic effect. The activity expected by the combination of two active ingredients can be calculated as follows (Colby S. R., “Weed”, vol. 15, p. 20-22, 1967). […] β: growth inhibition rate when treated with y (g/ha) of herbicide Y, E: growth inhibition rate expected when treated with x (g/ha) of herbicide X and y (g/ha) of herbicide Y. That is, when the actual growth inhibition rate (measured value) is larger than the growth inhibition rate by the above calculation (calculated value), the activity by the combination can be regarded as showing a synergistic effect. […] One day later, water dispersible granules containing flazasulfuron as an active ingredient (tradename: SHIBAGEN DF) and water dispersible granules containing amicarbazone as an active ingredient ([…]) in predetermined amounts were diluted with water (corresponding to 200 Uha) and applied for soil treatment by a small sprayer.

In general, inhibition refers to the relative decrease from the control value, in per cent.

Consider `CC(C)c1nn(C(=O)NC(C)(C)C)c(=O)n1N` [Amicarbazone, 4-amino-N-tertiary butyl-4,5-dihydro-3-isopropyl-5-oxo-1,2,4-1H-triazole-1-carboxamide], for which the inhibition at 1050 g/ha in assay [1] (dose 1050 g/ha) turned out to be 68%. Also, in assay [2] (foliar), the inhibition at 1250 g/ha amounted to 69%. Further, the inhibition at 150 g/ha in assay [3] (dose 150 g/ha) was 0%. In addition, the inhibition at 2500 g/ha in the assay on corn (Zea mays L.) (dose 2500 g/ha) came to 87%.

As to `COc1cc(OC)nc(NC(=O)NS(=O)(=O)c2ncccc2C(F)(F)F)n1` [Flazasulfuron, 1-(4,6-dimethoxypyrimidin-2-yl)-3-(3-trifluoromethyl-2-pyridylsulfonyl)urea], in assay [1] (dose 37.5 g/ha), the inhibition at 37.5 g/ha was 53%. Besides, the inhibition at 5 g/ha amounted to 0% in assay [2] (dose 5 g/ha, foliar treatment at 6.0 to 7.0 cm, 0.025 vol % Agral, 28 days after treatment) and 40% in the assay with corn (Zea mays L.) (dose 5 g/ha). Besides, the inhibition at 200 g/ha in assay [3] (dose 200 g/ha) was 15%.
